Activity, LD50 and concentration data for three compounds are collected here from ChEMBL document CHEMBL3046961, “Fungicidal activity of 12-propoxyimino-1, 15-pentadecanlactam on selected crops” (Crop Prot, 2009).

Data set [1] concerns Rhizoctonia solani. Description: Antifungal activity against Rhizoctonia solani in five-leaf stage of cucumber growing soil at 450 g/ha treated 48 hr before inoculation measured after 6 days relative to control by pot culture test. Format: functional.
Data set [2] can be described thus: Acute dermal toxicity in Rattus norvegicus (rat). The note with it: in vivo, topical or ocular. Format: organism-based, Skin of body.
The subject of data set [3] is Botrytis cinerea. Kind of data set: Antifungal activity against Botryotinia fuckeliana in seven to eight-leaf stage of tomato plant at 315 g/ha treated 24 hr before inoculation measured after 5 days relative to control. Format: functional.
Data set [4] can be described thus: Biodistribution in Gossypium hirsutum (cotton) plant leaf at 500 mg/L after 4 hr. Format: ADME, organism-based. The note with it: read-out: Drug uptake.
A short description of data set [5]: Biodistribution in Gossypium hirsutum (cotton) plant root at 500 mg/L after 16 hr. Format: ADME, organism-based. The note with it: read-out: Drug uptake.
Data set [6] is described as follows: Biodistribution in Gossypium hirsutum (cotton) plant leaf at 500 mg/L after 24 hr. The note with it: read-out: Drug uptake. The data set is classed as ADME, organism-based.
A short description of data set [7]: Biodistribution in Gossypium hirsutum (cotton) plant root at 500 mg/L after 8 hr. The data set is classed as ADME, organism-based. The note with it: read-out: Drug uptake.
Data set [8] concerns Botrytis cinerea. Description: Antifungal activity against Botryotinia fuckeliana in cucumber plant at 281 g/ha treated 2 times in 6 days interval measured after 7 days last treatment relative to control. The data set is classed as functional.
The subject of data set [9] is Rhizoctonia solani. Kind of data set: Antifungal activity against Rhizoctonia solani in five-leaf stage of cucumber growing soil at 168 g/ha treated 48 hr before inoculation measured after 6 days relative to control by pot culture test. The data set is classed as functional.
Data set [10] in a line: Biodistribution in Gossypium hirsutum (cotton) plant leaf at 500 mg/L after 8 hr. The data set is classed as ADME, organism-based. The note with it: read-out: Drug uptake.
Data set [11] relates to Botrytis cinerea. Kind of data set: Antifungal activity against Botryotinia fuckeliana in cucumber plant at 450 g/ha treated 2 times in 6 days interval measured after 7 days last treatment relative to control. The data set is classed as functional.
Data set [12] in a line: Biodistribution in Gossypium hirsutum (cotton) plant root at 500 mg/L after 36 hr. Particulars: read-out: Drug uptake. The data set is classed as ADME, organism-based.
Data set [13] can be described thus: Biodistribution in Gossypium hirsutum (cotton) plant stem at 500 mg/L after 8 hr. Format: ADME, organism-based. The note with it: read-out: Drug uptake.
Data set [14] relates to Rhizoctonia solani. Kind of data set: Antifungal activity against Rhizoctonia solani in five-leaf stage of cucumber growing soil at 315 g/ha treated 48 hr before inoculation measured after 6 days relative to control by pot culture test. Format: functional.
The subject of data set [15] is Botrytis cinerea. Kind of data set: Antifungal activity against Botryotinia fuckeliana in seven to eight-leaf stage of tomato plant at 504 g/ha treated 24 hr before inoculation measured after 5 days relative to control. The data set is classed as functional.
Data set [16] can be described thus: Biodistribution in Gossypium hirsutum (cotton) plant stem at 500 mg/L after 4 hr. The data set is classed as ADME, organism-based. Particulars: read-out: Drug uptake.
For data set [17], the species on record is Oryctolagus cuniculus. Description: Toxicity in Oryctolagus cuniculus (rabbit) assessed as eye irritation. The note with it: in vivo. Format: organism-based.
A short description of data set [18]: Biodistribution in Gossypium hirsutum (cotton) plant root at 500 mg/L after 48 hr. Format: ADME, organism-based. The note with it: read-out: Drug uptake.
Data set [19] is described as follows: Biodistribution in Gossypium hirsutum (cotton) plant stem at 500 mg/L after 36 hr. The data set is classed as ADME, organism-based. Particulars: read-out: Drug uptake.
Data set [20] can be described thus: Biodistribution in Gossypium hirsutum (cotton) plant stem at 500 mg/L after 16 hr. Format: ADME, organism-based. Particulars: read-out: Drug uptake.
Data set [21] in a line: Biodistribution in Gossypium hirsutum (cotton) plant stem at 500 mg/L after 48 hr. The data set is classed as ADME, organism-based. Particulars: read-out: Drug uptake.
For data set [22], the species on record is Oryctolagus cuniculus. Description: Toxicity in Oryctolagus cuniculus (rabbit) assessed as skin irritation. The data set is classed as organism-based. The note with it: in vivo.
Data set [23] can be described thus: Biodistribution in Gossypium hirsutum (cotton) plant leaf at 500 mg/L after 16 hr. Format: ADME, organism-based. Particulars: read-out: Drug uptake.
The test system of data set [24] is Botrytis cinerea. Description: Antifungal activity against Botryotinia fuckeliana in seven to eight-leaf stage of tomato plant at 168 g/ha treated 24 hr before inoculation measured after 5 days relative to control. Format: functional.
Data set [25] can be described thus: Biodistribution in Gossypium hirsutum (cotton) plant leaf at 500 mg/L after 48 hr. The note with it: read-out: Drug uptake. The data set is classed as ADME, organism-based.
Data set [26] in a line: Biodistribution in Gossypium hirsutum (cotton) plant root at 500 mg/L after 24 hr. Format: ADME, organism-based. The note with it: read-out: Drug uptake.
The nature of data set [27]: Biodistribution in Gossypium hirsutum (cotton) plant stem at 500 mg/L after 24 hr. Particulars: read-out: Drug uptake. Format: ADME, organism-based.
Data set [28] is described as follows: Biodistribution in Gossypium hirsutum (cotton) plant root at 500 mg/L after 4 hr. Format: ADME, organism-based. Particulars: read-out: Drug uptake.
A short description of data set [29]: Biodistribution in Gossypium hirsutum (cotton) plant leaf at 500 mg/L after 36 hr. Particulars: read-out: Drug uptake. Format: ADME, organism-based.
Data set [30] has as its system Rhizoctonia solani. Kind of data set: Antifungal activity against Rhizoctonia solani in five-leaf stage of cucumber growing soil at 504 g/ha treated 48 hr before inoculation measured after 6 days relative to control by pot culture test. The data set is classed as functional.
Data set [31] in a line: Acute oral toxicity in Rattus norvegicus (rat). The data set is classed as organism-based. The note with it: in vivo.
Data set [32] deals with Botrytis cinerea. Kind of data set: Antifungal activity against Botryotinia fuckeliana in seven to eight-leaf stage of tomato plant at 563 g/ha treated 24 hr before inoculation measured after 5 days relative to control. The data set is classed as functional.

Turning to `CN(C)C(=S)SSC(=S)N(C)C` [THIRAM], in data set [1], the Activity amounted to 42.14%.
In general, LD50 refers to the dose expected to kill half of the subjects tested. In the case of `CCCON=C1CCCCCCCCCCC(=O)NCCC1`, the LD50 is over 2000 mg/kg in [2], “Toxic” in data set [17], “Non-toxic” in data set [22] and over 5000 mg/kg in data set [31]. Also, the Activity in data set [3] is 85.82%; in data set [8] it was 89.51%; in [9], 38.99%; in data set [11], 95.14%; in data set [14], 53.46%; in data set [15], 87.51%. Also, the Activity was found to be 80.67% in data set [24] and 73.59% in data set [30]. The concentration at 4 h is 40 ng/g in data set [4], 190 ng/g in data set [16] and 54400 ng/g in data set [28]. Besides, the concentration at 16 h in [5] came out at 97000 ng/g; in data set [20], 2710 ng/g; in [23] it was 330 ng/g. The concentration at 24 h worked out at 890 ng/g in data set [6], 98000 ng/g in [26] and 4270 ng/g in [27]. In addition, the concentration at 8 h in data set [7] came to 66700 ng/g; in [10], 110 ng/g; in [13] it was 870 ng/g. Besides, the concentration at 36 h in data set [12] was determined as 116000 ng/g; in data set [19], 8950 ng/g; in data set [29], 2930 ng/g. For the same compound, the concentration at 48 h in [18] was determined as 137000 ng/g; in data set [21], 5120 ng/g; in data set [25] it was 2530 ng/g.
The compound `CC(C)NC(=O)N1CC(=O)N(c2cc(Cl)cc(Cl)c2)C1=O` [IPRODIONE] came in with an Activity in data set [32] of 90.39%.
